# Counter-ions that a name gives are not always drawn. Like-named read-outs stand apart in the source and are kept apart here.
# B1: asialofetuin: fetuin glycoprotein treated to remove terminal sialic acid residues (protein, UniProt P12763 19-359, looked up)
# Alpha-2-HS-glycoprotein: IPLDPVAGYKEPACDDPDTEQAALAAVDYINKHLPRGYKHTLNQIDSVKVWPRRPTGEVYDIEIDTLETTCHVLDPTPLANCSVRQQTQHAVEGDCDIHVLKQDGQFSVLFTKCDSSPDSAEDVRKLCPDCPLLAPLNDSRVVHAVEVALATFNAESNGSYLQLVEISRAQFVPLPVSVSVEFAVAATDCIAKEVVDPTKCNLLAEKQYGFCKGSVIQKALGGEDVRVTCTLFQTQPVIPQPQPDGAEAEAPSAVPDAAGPTPSAAGPPVASVVVGPSVVAVPLPLHRAHYDLRHTFSGVASVESSSGEAFHVGKTPIVGQPSIPGGPVRLCPGRIRYFKI
# modifications: desialylated
# notes: fetuin glycoprotein treated to remove terminal sialic acid residues
# B2: bovine fetuin (Sigma): globular 341-amino acid polypeptide with six internal disulfide bonds and three N-linked and two O-linked oligosaccharide chains (protein, UniProt P12763 19-359, looked up)
# Alpha-2-HS-glycoprotein: B1 Alpha-2-HS-glycoprotein
# B3: fetuin: globular protein of about 60-70 kDa, containing 20-25% carbohydrate (protein, UniProt P12763 19-359, looked up)
# Alpha-2-HS-glycoprotein: B1 Alpha-2-HS-glycoprotein
# B4: human fetuin glycoprotein: human fetuin glycoprotein (commercially prepared, Sigma) (protein)
# chain: MKSLVLLLCLAQLWGCHSAPHGPGLIYRQPNCDDPETEEAALVAIDYINQNLPWGYKHTLNQIDEVKVWPQQPSGELFEIEIDTLETTCHVLDPTPVARCSVRQLKEHAVEGDCDFQLLKLDGKFSVVYAKCDSSPDSAEDVRKVCQDCPLLAPLNDTRVVHAAKAALAAFNAQNNGSNFQLEEISRAQLVPLPPSTYVEFTVSGTDCVAKEATEAAKCNLLAEKQYGFCKATLSEKLGGAEVAVTCTVFQTQPVTSQPQPEGANEAVPTPVVDPDAPPSPPLGAPGLPPAGSPPDSHVLLAAPPGHQLHRAHYDLRHTFMGVVSLGSPSGEVSHPRKTRTVVQPSVGAAAGPVVPPCPGRIRHFKV
# B5: glycophorin: other glycoprotein, net negatively charged at physiological pH (protein, UniProt P02724 20-150, looked up)
# Glycophorin-A: LSTTEVAMHTSTSSSVTKSYISSQTNDTHKRDTYAATPRAHEVSEISVRTVYPPEEETGERVQLAHHFSEPEITLIIFGVMAGVIGTILLISYGIRRLIKKSPSDVKPLPSPDTDVPLSSVEIENPETSDQ
# Tests used:
# [1] = system: LPS-stimulated RAW 264.7 cells (inducible nitric oxide synthase, iNOS); assay: NO / nitrite production (Griess reaction, iNOS activity) in LPS-stimulated RAW 264.7 cells; type: cell-based, murine; details: for augmentation of CNI-1493 activity (nitrite production): glycoprotein 2.5 μg/ml, CNI-1493 2.0 μM, FIG. 13
# Description: (§1) Typically, cultures were maintained in 150-mm plates with 30 mls culture medium until they reached 80-90% confluence, and were then subjected to different experimental protocols. […] The incubation was continued for another 24 hours before subjecting the cultures to further experiments.
# (§2) LPS (endotoxin) was sonicated for 10 minutes and added to culture media to achieve the desired final concentration, typically 100 ng/ml.
# Inducible nitric oxide synthase activity (iNOS) was assayed indirectly by measuring NO^2- production. NO^2- was measured by a colorimetric assay based on the Griess reaction. […] The optical density was read at 560 nm after 10 min, and NO^2- concentration was determined with reference to a standard curve by using concentrations of 1.5 to 50 μM sodium nitrite in culture medium.
# [2] = system: mice, endotoxin (LPS) lethality; details: in vivo; background statement; cited from earlier work
# NO production = details: background statement; cited from earlier work
# rat paw edema = details: carageenan administration; background statement; cited from earlier work
# [3] = system: LPS-stimulated RAW 264.7 cells (TNF production); details: pre-treatment; prior studies; cited from earlier work
# [4] = Charge at physiological pH; type: physicochemical
# [5] = system: LPS-stimulated RAW 264.7 cells (LPS-inducible arginase II activity); assay: Urea production (LPS-inducible arginase II functional assay) in LPS-stimulated RAW 264.7 cells; type: cell-based, murine
# Description: as §1, §2
# Accumulation of urea in the cell culture medium was measured as a functional assay of LPS-inducible arginase II activity. […] The optical density at 535 nm was measured, and urea concentrations were calculated by comparison with OD535 of standard dilutions of urea prepared in culture medium.
# Whole-cell lysate preparations were fractionated by sequential ultrafiltration over Amicon Centricon®-100, and Centricon®-30 filters, respectively.
# [6] = system: LPS-stimulated human PBMCs (TNF production); assay: TNF production in LPS-stimulated human PBMCs; type: cell-based; details: CNI-1493 50 nM, FIG. 11; for enhancement of CNI-1493 activity (TNF suppression in PBMCs): fetuin 1.0 μg/ml or 10 μg/ml
# [7] = system: human peripheral blood mononuclear cells; details: background statement, cited from earlier work
# [8] = system: LPS-stimulated RAW 264.7 cells (IL-1 β, IL-6, MIP-1α, and MIP-1β); details: pre-treatment; prior studies; cited from earlier work
# [9] = system: LPS-stimulated RAW 264.7 cells (TNF production); assay: TNF production (ELISA) in LPS-stimulated RAW 264.7 cells; type: cell-based, murine; details: for inhibition at 2.5 µM: RAW264.7, 4 h
# Description: as §1, §2
# arginine uptake = assay: Assay for arginine uptake; type: cell-based
# [10] = system: LPS-stimulated RAW 264.7 cells (LPS-inducible arginase II activity); details: pre-treatment; prior studies; cited from earlier work
# [11] = system: LPS-stimulated RAW 264.7 cells (inducible nitric oxide synthase, iNOS); details: pre-treatment; prior studies; cited from earlier work
# [12] = system: LPS-challenged mice (serum TNF); assay: Serum TNF levels in LPS-challenged mice; type: in vivo; details: fetuin 20 mg/kg pretreatment 1 hour; CNI-1493 2.5 mg/kg ip; LPS 13 mg/kg; serum at four hours; FIG. 12
# Description: The fetuin pretreatment dose was 20 mg/kg.
# [13] = LPS-activated macrophages, CNI-1493 alone
# [14] = non-responsive cultures (≥56 hours after 1:4 split), CNI-1493 up to 5 μM
molecule,measurement,setting,value
"α1-acid glycoprotein: other glycoprotein, net negatively charged at physiological pH",augmentation of CNI-1493 activity (nitrite production),[1],only fetuin was effective in augmenting CNI-1493 therapeutic activity
"CC(=NNC(=N)N)c1cc(NC(=O)CCCCCCCCC(=O)Nc2cc(C(C)=NNC(=N)N)cc(C(C)=NNC(=N)N)c2)cc(C(C)=NNC(=N)N)c1 [CNI-1493, N,N'-bis[3,5-bis[1-(aminoiminomethyl)hydrazonoethyl]phenyl]decanediamide tetrahydrochloride]",protection against lethal effects of endotoxin,[2],protects mice against lethal effects of endotoxin
same,suppression of NO production,[1]; [13],dose-dependent suppression
same,inhibition at 2.5 µM,"[1]; Mus musculus, RAW264.7, read-out: suppression of NO",> 50%
same,inhibition at 2.5 µM,"[1]; Mus musculus, RAW264.7, read-out: suppression of NO accumulation",< 10%
same,IC50,"[1]; Mus musculus, RAW264.7, responsive cultures, stated as approximately the same as the urea IC50, read-out: IC50 with respect to NO production",< 2 µM
same,effect on level of NO,[1]; [14],not reduced
same,IC50,NO production,5 µM
same,"anti-inflammatory effect, paw edema and inflammation",rat paw edema,suppression of rat paw edema and inflammation
same,suppression of LPS-stimulated TNF production,[3],suppresses
same,charge at physiological pH,[4],four positive charges
same,suppression of urea production,[5]; [13],dose-dependent suppression of urea production
same,inhibition at 5 µM,"[5]; Mus musculus, RAW264.7, 20 h, read-out: decrease in urea accumulation compared to control",> 95%
same,inhibition at 2.5 µM,"[5]; Mus musculus, RAW264.7, read-out: suppression of urea",> 50%
same,inhibition at 2.5 µM,"[5]; Mus musculus, RAW264.7, read-out: suppression of urea accumulation",< 10%
same,IC50,"[5]; Mus musculus, RAW264.7, responsive cultures, estimated, read-out: IC50 (concentration of 50% inhibition) with respect to urea production",< 2 µM
same,effect on level of urea,[5]; [14],not reduced
same,"urea concentration, effect of CNI-1493 alone","[5]; partially non-responsive cells, 2.5 μM CNI-1493, FIG. 9",small degree of inhibitory activity
same,suppression of TNF production in PBMCs by CNI-1493,[6],active in suppressing TNF production
same,inhibition of TNF translation,[7],inhibits TNF (tumor necrosis factor) translation
same,"suppression of production of IL-1, IL-6, MIP-1α and MIP-1β",[7]; human peripheral blood mononuclear cells,"suppresses the production of IL-1, IL-6, MIP-1α and MIP-1β"
same,"suppression of several other cytokines such as IL-1 β, IL-6, MIP-1α, and MIP-1β",[8],suppresses
same,suppression of TNF-α production,[9]; [13],dose-dependent suppression
same,inhibition at 2.5 µM,"[9]; Mus musculus, read-out: suppression of TNF accumulation",< 10%
same,inhibition at 2.5 µM,"[9]; Mus musculus, read-out: suppression of TNF production",> 90%
same,IC50,"[9]; Mus musculus, RAW264.7, responsive cultures, stated as approximately the same as the urea IC50, read-out: IC50 with respect to TNF production",< 2 µM
same,inhibition of TNF levels in culture supernatants,"[9]; low serum precultured (non-responsive) cells, FIG. 1",not responsive
same,effect on level of TNF,[9]; [14],not reduced
same,IC50,arginine uptake,~10 µM
same,suppression of LPS-stimulated urea production,[10],suppresses
same,suppression of LPS-stimulated NO production,[11],suppresses
B1,enhancement of CNI-1493 activity (suppression of urea production),"[5]; non-responsive cultures, glycoprotein 1.0 and 2.5 μg/ml, CNI-1493 2.5 μM, FIG. 10",not nearly as active as fetuin
B2,enhancement of CNI-1493 activity (TNF suppression in PBMCs),[6],"enhanced, in a dose-dependent fashion"
same,enhancement of CNI-1493 activity (suppression of serum TNF),[12],greatly enhanced CNI-1493 therapeutic activity
B3,augmentation of CNI-1493 activity (nitrite production),[1],only fetuin was effective in augmenting CNI-1493 therapeutic activity
B4,enhancement of CNI-1493 activity (TNF suppression in PBMCs),[6],enhanced
B5,augmentation of CNI-1493 activity (nitrite production),[1],only fetuin was effective in augmenting CNI-1493 therapeutic activity

# Source: US6319894A, “Complexes and combinations of fetuin with therapeutic agents” (The Picower Institute for Medical Research, priority 1997, dated 2001)
